Publication PMC11851430, “Workflow for E3 Ligase Ligand Validation for PROTAC Development” (ACS Chemical Biology, 2025)

Columns and labels:
AKT3A = target: T1, AKT3A (Homo sapiens, UniProt Q9Y243); test: DSF assay; assay type: binding; conditions: 20 µM compound
T1 construct: purchased in-house DSF panel (SGC-style construct names; the trailing A/B is a construct suffix)

CAMK1DA = target: T2, CAMK1DA (Homo sapiens, UniProt Q8IU85); test: DSF assay; assay type: binding; conditions: 20 µM compound
T2 construct: purchased in-house DSF panel (SGC-style construct names; the trailing A/B is a construct suffix)

CAMKK2B = target: T3, CAMKK2B (Homo sapiens, UniProt Q96RR4); test: DSF assay; assay type: binding; conditions: 20 µM compound
T3 construct: purchased in-house DSF panel (SGC-style construct names; the trailing A/B is a construct suffix)

CASKA = target: T4, CASKA (Homo sapiens, UniProt O14936); test: DSF assay; assay type: binding; conditions: 20 µM compound
T4 construct: purchased in-house DSF panel (SGC-style construct names; the trailing A/B is a construct suffix)
T4 sequence (O14936 1-337): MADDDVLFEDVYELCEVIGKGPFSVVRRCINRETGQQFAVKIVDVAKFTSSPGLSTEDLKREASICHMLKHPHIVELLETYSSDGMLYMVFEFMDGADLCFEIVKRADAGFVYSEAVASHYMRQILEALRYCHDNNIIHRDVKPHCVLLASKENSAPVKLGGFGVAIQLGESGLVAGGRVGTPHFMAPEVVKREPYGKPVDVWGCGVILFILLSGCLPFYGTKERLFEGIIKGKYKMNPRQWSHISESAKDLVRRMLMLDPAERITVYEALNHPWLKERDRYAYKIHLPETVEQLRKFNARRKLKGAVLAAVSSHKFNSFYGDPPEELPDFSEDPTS

CHEK2A = target: T5, CHEK2A (Homo sapiens, UniProt O96017); test: DSF assay; assay type: binding; conditions: 20 µM compound
T5 construct: purchased in-house DSF panel (SGC-style construct names; the trailing A/B is a construct suffix)

FGFR2A = target: T6, FGFR2A (Homo sapiens, UniProt P21802); test: DSF assay; assay type: binding; conditions: 20 µM compound
T6 construct: purchased in-house DSF panel (SGC-style construct names; the trailing A/B is a construct suffix)

GPRK5A = GPRK5A (Homo sapiens, UniProt P34947); test: DSF assay; assay type: binding; conditions: 20 µM compound
GSK3BB = target: T7, GSK3BB (Homo sapiens, UniProt P49841); test: DSF assay; assay type: binding; conditions: 20 µM compound
T7 construct: purchased in-house DSF panel (SGC-style construct names; the trailing A/B is a construct suffix)

PAK1A = target: T8, PAK1A (Homo sapiens, UniProt Q13153); test: DSF assay; assay type: binding; conditions: 20 µM compound
T8 construct: purchased in-house DSF panel (SGC-style construct names; the trailing A/B is a construct suffix)

RIOK2A = target: T9, RIOK2A (Homo sapiens, UniProt Q9BVS4); test: DSF assay; assay type: binding; conditions: 20 µM compound
T9 construct: purchased in-house DSF panel (SGC-style construct names; the trailing A/B is a construct suffix)

RPS6KA6A = test: DSF assay; assay type: binding; conditions: 20 µM compound
STK4A = target: T10, STK4A (Homo sapiens, UniProt Q13043); test: DSF assay; assay type: binding; conditions: 20 µM compound
T10 construct: purchased in-house DSF panel (SGC-style construct names; the trailing A/B is a construct suffix)
T10 sequence (Q13043 1-311): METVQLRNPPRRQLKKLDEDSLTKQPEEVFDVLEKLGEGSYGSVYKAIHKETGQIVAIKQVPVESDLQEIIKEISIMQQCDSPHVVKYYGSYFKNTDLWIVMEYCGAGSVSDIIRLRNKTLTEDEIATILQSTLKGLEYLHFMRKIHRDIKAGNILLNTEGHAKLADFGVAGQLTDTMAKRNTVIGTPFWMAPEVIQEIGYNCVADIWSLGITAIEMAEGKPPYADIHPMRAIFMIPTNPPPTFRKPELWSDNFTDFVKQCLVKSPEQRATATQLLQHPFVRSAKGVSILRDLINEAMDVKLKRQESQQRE

ULK3A = target: T11, ULK3A (Homo sapiens, UniProt Q6PHR2); test: DSF assay; assay type: binding; conditions: 20 µM compound
T11 construct: purchased in-house DSF panel (SGC-style construct names; the trailing A/B is a construct suffix)
T11 sequence (Q6PHR2 1-277): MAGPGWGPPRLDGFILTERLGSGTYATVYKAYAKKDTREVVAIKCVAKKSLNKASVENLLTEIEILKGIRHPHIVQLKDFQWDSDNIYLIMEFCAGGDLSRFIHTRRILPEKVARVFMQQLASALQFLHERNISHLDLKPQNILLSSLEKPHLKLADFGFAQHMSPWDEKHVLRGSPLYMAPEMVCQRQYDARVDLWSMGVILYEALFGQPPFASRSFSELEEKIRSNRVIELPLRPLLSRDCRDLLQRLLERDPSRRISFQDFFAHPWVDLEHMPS

ITK = target: T12, ITK (Homo sapiens, UniProt Q08881); test: Western blot assay; assay type: cell-based; conditions: Jurkat cells, 6 h
T12 construct: endogenous in cells; host or cells: Jurkat
T12 sequence (Q08881 1-620): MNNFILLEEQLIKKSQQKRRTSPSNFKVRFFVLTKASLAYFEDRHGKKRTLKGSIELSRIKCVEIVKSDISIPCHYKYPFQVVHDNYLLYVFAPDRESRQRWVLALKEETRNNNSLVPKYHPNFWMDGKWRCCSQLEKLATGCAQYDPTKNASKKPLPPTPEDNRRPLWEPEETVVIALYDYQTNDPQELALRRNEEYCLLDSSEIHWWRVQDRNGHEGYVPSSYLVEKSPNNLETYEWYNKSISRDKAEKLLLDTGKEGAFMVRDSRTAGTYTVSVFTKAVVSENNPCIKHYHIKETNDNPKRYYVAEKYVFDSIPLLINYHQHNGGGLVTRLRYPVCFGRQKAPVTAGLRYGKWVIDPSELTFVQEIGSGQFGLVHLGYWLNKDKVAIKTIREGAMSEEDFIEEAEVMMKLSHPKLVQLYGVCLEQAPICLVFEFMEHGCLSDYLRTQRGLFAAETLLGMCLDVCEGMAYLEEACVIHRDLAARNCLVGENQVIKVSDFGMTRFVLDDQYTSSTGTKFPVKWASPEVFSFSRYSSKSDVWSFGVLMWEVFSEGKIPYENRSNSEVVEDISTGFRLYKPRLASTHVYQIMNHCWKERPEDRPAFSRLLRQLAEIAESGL
Procedure: Two mL of Jurkat cells were seeded into 6 well plates (Greiner) at a density of 5·10 5 cells/mL.
The following day, cells were treated with compounds at according concentrations or DMSO for 6 hours and then lysed with 6 M Urea at 4 °C for 20 minutes. The lysates were centrifuged for 15 minutes at 16000 g and the supernatant was collected to perform the Western-Blot.
Protein quantification was performed using nanodrop One. The SDS samples were prepared […]
The samples were separated by a BIS-TRIS polyacrylamide gel polyacrylamide gel, 100 V for 1:45) followed by transfer to PVDF membranes (Millipore) at 350 mA for 140 minutes. The membranes were blocked using 5%wt/vol BSA (in TBS-T, 20 mM Tris-HCl, pH 7.5, 150 mM NaCl and 0.1% (vol/vol) Tween 20) at room temperature for 1 hour.
The blots were incubated with respective primary antibodies at 1:1000 dilution (Cell Signaling technologies: Aurora A (D3E4Q), ITK (2F12) and GAPDH (D4C6R)) at 4 °C overnight. The blots were washed with TBS-T thrice and incubated with 1:5000 dilution of horseradish peroxidase (HRP)-labelled respective secondary antibodies (Cell Signaling technologies, Anti- […]
The blots were washed with TBS-T thrice and then incubated with chemiluminescent HRP substrate (Bio-Rad) for 2 minutes. The blots were imaged and the signals were detected using the Amersham ImageQuant 800 (Cytiva).
Cell culture. Human MV4-11 ([…]) and human Jurkat ([…]) cells were cultured in RPMI- […]
°C in 5% CO2. Both media were supplemented with 10% FBS and 1% penicillin/streptomycin. […]

T7 sequence (P49841 35-386): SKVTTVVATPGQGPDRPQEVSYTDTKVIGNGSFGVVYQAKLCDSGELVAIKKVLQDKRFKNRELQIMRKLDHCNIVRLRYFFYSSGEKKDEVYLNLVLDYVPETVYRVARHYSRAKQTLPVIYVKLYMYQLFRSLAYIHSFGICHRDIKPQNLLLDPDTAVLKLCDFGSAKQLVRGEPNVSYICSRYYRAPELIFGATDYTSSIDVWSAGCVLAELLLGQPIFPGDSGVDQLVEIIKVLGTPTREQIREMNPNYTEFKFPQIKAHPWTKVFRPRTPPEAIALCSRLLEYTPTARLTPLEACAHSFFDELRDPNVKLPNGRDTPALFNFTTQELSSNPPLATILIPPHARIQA
Sequence of GPRK5A (P34947 186-514 limits assumed): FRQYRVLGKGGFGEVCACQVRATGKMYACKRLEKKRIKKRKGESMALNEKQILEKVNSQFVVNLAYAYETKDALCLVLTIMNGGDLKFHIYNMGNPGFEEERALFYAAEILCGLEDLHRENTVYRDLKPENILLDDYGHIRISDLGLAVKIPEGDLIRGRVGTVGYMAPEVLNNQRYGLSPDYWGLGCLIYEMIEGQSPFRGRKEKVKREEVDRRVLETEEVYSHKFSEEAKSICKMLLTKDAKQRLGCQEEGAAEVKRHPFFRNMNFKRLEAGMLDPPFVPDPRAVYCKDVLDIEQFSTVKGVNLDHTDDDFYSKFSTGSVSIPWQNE
T3 sequence (Q96RR4 161-449): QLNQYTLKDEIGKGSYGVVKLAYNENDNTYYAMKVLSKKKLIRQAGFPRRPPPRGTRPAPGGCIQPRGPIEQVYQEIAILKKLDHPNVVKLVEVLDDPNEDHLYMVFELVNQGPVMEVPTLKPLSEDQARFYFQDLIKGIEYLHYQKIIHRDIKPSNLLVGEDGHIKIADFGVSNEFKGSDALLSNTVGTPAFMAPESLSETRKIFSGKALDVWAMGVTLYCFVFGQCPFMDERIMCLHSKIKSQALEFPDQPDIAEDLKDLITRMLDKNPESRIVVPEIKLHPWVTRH
T5 sequence (O96017 210-531): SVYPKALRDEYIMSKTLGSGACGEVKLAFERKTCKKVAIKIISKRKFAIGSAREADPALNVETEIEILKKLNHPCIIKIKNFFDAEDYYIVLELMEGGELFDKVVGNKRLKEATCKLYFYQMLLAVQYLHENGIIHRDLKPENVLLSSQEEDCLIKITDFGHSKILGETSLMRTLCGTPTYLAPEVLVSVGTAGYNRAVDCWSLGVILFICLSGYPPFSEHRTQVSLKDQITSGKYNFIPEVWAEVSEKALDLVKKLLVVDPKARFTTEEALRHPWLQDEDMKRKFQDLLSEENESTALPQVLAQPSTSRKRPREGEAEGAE
T1 sequence (Q9Y243 141-479): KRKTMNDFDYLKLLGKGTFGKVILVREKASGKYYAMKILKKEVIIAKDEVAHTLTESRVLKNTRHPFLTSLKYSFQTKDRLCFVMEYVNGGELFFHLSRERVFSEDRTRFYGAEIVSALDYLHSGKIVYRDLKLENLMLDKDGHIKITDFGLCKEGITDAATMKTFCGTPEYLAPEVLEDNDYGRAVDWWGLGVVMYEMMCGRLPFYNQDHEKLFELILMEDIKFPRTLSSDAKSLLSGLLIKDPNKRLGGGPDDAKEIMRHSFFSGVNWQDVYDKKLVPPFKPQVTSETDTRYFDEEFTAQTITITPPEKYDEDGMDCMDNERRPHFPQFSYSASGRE
T2 sequence (Q8IU85 whole entry): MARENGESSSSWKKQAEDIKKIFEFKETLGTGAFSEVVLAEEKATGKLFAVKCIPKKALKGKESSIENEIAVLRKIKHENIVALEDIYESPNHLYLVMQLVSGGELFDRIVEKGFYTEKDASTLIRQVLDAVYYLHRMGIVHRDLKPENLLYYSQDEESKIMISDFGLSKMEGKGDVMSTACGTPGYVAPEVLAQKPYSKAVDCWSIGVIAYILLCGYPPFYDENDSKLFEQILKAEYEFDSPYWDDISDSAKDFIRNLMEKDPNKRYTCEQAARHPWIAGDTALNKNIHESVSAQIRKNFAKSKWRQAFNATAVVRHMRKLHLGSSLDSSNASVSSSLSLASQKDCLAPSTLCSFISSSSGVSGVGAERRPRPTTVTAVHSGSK
T8 sequence (Q13153 249-545): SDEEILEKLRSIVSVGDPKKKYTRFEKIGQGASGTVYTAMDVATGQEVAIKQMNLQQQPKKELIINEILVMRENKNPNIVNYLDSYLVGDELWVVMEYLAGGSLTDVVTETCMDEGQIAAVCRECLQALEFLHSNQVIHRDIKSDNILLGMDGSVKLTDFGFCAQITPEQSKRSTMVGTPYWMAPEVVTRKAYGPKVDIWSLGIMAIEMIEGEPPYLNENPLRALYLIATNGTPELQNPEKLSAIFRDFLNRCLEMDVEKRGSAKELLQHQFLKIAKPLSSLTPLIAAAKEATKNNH
T6 sequence (P21802 458-770): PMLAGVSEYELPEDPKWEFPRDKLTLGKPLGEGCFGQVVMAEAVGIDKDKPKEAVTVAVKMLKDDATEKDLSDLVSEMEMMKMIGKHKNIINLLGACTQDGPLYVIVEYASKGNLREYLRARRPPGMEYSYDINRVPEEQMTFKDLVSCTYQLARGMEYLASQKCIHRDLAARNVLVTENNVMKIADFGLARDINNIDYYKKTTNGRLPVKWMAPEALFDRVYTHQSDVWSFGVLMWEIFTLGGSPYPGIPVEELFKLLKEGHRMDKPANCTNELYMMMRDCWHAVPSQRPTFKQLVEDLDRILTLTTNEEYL
T9 sequence (Q9BVS4 whole entry): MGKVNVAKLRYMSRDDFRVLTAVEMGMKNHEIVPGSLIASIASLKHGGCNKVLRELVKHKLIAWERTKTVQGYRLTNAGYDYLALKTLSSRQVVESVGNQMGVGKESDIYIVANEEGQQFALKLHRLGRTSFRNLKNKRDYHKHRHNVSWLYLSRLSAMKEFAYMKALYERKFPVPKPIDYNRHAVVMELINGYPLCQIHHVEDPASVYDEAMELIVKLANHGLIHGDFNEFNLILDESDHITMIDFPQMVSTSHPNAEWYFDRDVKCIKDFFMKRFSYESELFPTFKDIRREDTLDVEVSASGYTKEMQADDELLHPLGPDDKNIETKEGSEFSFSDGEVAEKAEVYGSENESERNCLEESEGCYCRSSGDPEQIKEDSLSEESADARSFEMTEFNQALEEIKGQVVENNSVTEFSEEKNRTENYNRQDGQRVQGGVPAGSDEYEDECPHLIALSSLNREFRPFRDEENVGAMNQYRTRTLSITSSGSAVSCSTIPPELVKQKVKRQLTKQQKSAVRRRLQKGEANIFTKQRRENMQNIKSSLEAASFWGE

ΔTm at 20 µM (AKT3A) [°C] | ΔTm at 20 µM (CAMK1DA) [°C] | ΔTm at 20 µM (CAMKK2B) [°C] | ΔTm at 20 µM (CASKA) [°C] | ΔTm at 20 µM (CHEK2A) [°C] | ΔTm at 20 µM (FGFR2A) [°C] | ΔTm at 20 µM (GPRK5A) [°C] | ΔTm at 20 µM (GSK3BB) [°C] | ΔTm at 20 µM (PAK1A) [°C] | ΔTm at 20 µM (RIOK2A) [°C] | ΔTm at 20 µM (STK4A) [°C] | ΔTm at 20 µM (ULK3A) [°C] | ITK protein levels (Western blot) (ITK) | Structure (SMILES) | ΔTm (RPS6KA6A) [°C]
0.51 | 2.24 | 15.4 | -0.0121 | 6.36 | 7.61 | 2.06 | 14.8 | 0.92 | 6.13 | 9.02 | 18.5 | – | CC(C)(C)OC(=O)NCCOCCOCCOCCOCCC(=O)N1CCN(c2cc(Nc3cc(C4CC4)[nH]n3)nc(Nc3ccc(CC#N)cc3)n2)CC1 [4-L] | 0.07
– | – | – | – | – | – | – | – | – | – | – | – | dose-dependent degradation of ITK | Cc1ncsc1-c1ccc(CNC(=O)[C@@H]2C[C@@H](O)CN2C(=O)[C@@H](NC(=O)CCOCCOCCOCCN2CCN(c3cc(Nc4cc(C5CC5)[nH]n4)nc(Nc4ccc(CC#N)cc4)n3)CC2)C(C)(C)C)cc1 [4-a] | –
– | – | – | – | – | – | – | – | – | – | – | – | did not cause any degradation of ITK | Cc1ncsc1-c1ccc(CNC(=O)[C@@H]2C[C@H](O)CN2C(=O)[C@@H](NC(=O)CCOCCOCCOCCN2CCN(c3cc(Nc4cc(C5CC5)[nH]n4)nc(Nc4ccc(CC#N)cc4)n3)CC2)C(C)(C)C)cc1 [4-a^neg] | –
0.12 | 3.86 | 10.7 | 1.29 | 5.41 | 3.37 | 2.55 | 14.2 | -0.24 | 5.03 | 7.44 | 13.3 | – | CC(C)(C)OC(=O)NCCCOCCOCCOCCCNC(=O)c1cc(Nc2cc(C3CC3)[nH]n2)nc(Nc2ccc(CC#N)cc2)n1 [5-L] | 0.35
– | – | – | – | – | – | – | – | – | – | – | – | dose-dependent degradation of ITK | Cc1ncsc1-c1ccc(CNC(=O)[C@@H]2C[C@@H](O)CN2C(=O)[C@@H](NC(=O)CCOCCOCCOCCOCCN2CCN(c3ccc(Nc4ncc(Cl)c(Nc5ccccc5C(N)=O)n4)cc3)CC2)C(C)(C)C)cc1 [6-b] | –
– | – | – | – | – | – | – | – | – | – | – | – | did not cause any degradation of ITK | Cc1ncsc1-c1ccc(CNC(=O)[C@@H]2C[C@H](O)CN2C(=O)[C@@H](NC(=O)CCOCCOCCOCCOCCN2CCN(c3ccc(Nc4ncc(Cl)c(Nc5ccccc5C(N)=O)n4)cc3)CC2)C(C)(C)C)cc1 [6-b^neg] | –
1.18 | 3.94 | 9.77 | 1.91 | 4.17 | 6.36 | 1.7 | 14.4 | 1.05 | 6.53 | 8.99 | 15.4 | – | CCOC(=O)c1cc(Nc2cc(C3CC3)[nH]n2)nc(Nc2ccc(CC#N)cc2)n1 [compound 5] | 0.34
